Results published in PubChem BioAssay (NCI).
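Five concentrations, 48 hours, 96-well plates. TGI is the concentration that stops growth completely.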

What was measured:
Experiment in all cases: inhibition of tumour cell growth, NCI panel, 48 h
BT-549 breast = test system: BT-549 breast
CCRF-CEM leukemia = test system: CCRF-CEM leukemia
COLO 205 colon = test system: COLO 205 colon
HCC-2998 colon = test system: HCC-2998 colon
HCT-116 colon = test system: HCT-116 colon
HOP-62 NSCLC = test system: HOP-62 NSCLC
HOP-92 NSCLC = test system: HOP-92 NSCLC
KM12 colon = test system: KM12 colon
MDA-MB-231 breast = test system: MDA-MB-231 breast
MDA-MB-435 = test system: MDA-MB-435
NCI-H522 lung = test system: NCI-H522 lung
RPMI-8226 leukemia = test system: RPMI-8226 leukemia
SK-MEL-2 melanoma = test system: SK-MEL-2 melanoma
SNB-19 CNS = test system: SNB-19 CNS
SNB-75 CNS = test system: SNB-75 CNS
U251 CNS = test system: U251 CNS
LOX IMVI melanoma = test system: LOX IMVI melanoma
MDA-N = test system: MDA-N
MCF7 breast = test system: MCF7 breast

Compound	TGI (BT-549 breast)	TGI (CCRF-CEM leukemia)	TGI (COLO 205 colon)	TGI (HCC-2998 colon)	TGI (HCT-116 colon)	TGI (HOP-62 NSCLC)	TGI (HOP-92 NSCLC)	TGI (KM12 colon)	TGI (MDA-MB-231 breast)	TGI (MDA-MB-435)	TGI (NCI-H522 lung)	TGI (RPMI-8226 leukemia)	TGI (SK-MEL-2 melanoma)	TGI (SNB-19 CNS)	TGI (SNB-75 CNS)	TGI (U251 CNS)	TGI (LOX IMVI melanoma)	TGI (MDA-N)	TGI (MCF7 breast)
Cc1oc2nc(N(C)C)nc(Cl)c2c1C	> 100 µM	> 100 µM	> 100 µM	> 100 µM	> 100 µM	> 100 µM	> 100 µM	> 100 µM	> 100 µM	> 100 µM	> 100 µM	> 100 µM	> 100 µM	> 100 µM	> 100 µM	> 100 µM	–	–	–
O=C(CSc1nnc(Cc2ccccc2)o1)Nc1cccc([N+](=O)[O-])c1	–	> 100 µM	> 100 µM	> 100 µM	> 100 µM	> 100 µM	–	> 100 µM	–	–	> 100 µM	> 100 µM	> 100 µM	–	> 100 µM	> 100 µM	> 100 µM	–	–
O=[N+]([O-])C(C(Cl)=C(Cl)Cl)=C(N1CCOCC1)N1CCOCC1	–	> 100 µM	> 100 µM	> 100 µM	> 100 µM	> 100 µM	–	> 100 µM	> 100 µM	> 100 µM	> 100 µM	> 100 µM	> 100 µM	> 100 µM	> 100 µM	> 100 µM	> 100 µM	> 100 µM	–
CC#CC(=O)Nc1ccccc1CC(c1c[nH]c2ccccc12)c1c[nH]c2ccccc12	–	39.4 µM	29.7 µM	32.7 µM	–	35.9 µM	–	53.6 µM	–	–	–	58.1 µM	34.4 µM	45.6 µM	38.8 µM	–	33.8 µM	–	–
N#[O+].O=S(=O)([O-])[O-].[NH2-].[NH2-].[NH2-].[NH2-].[NH2-].[Ru+5]	–	> 100 µM	> 100 µM	> 100 µM	> 100 µM	–	> 100 µM	> 100 µM	–	–	> 100 µM	–	> 100 µM	–	> 100 µM	> 100 µM	> 100 µM	–	–
CCOC(=O)[C@H]1Nc2ccc(C)cc2C2c3ccccc3CC21 (stereo partly specified)	–	–	> 100 µM	> 100 µM	> 100 µM	> 100 µM	–	> 100 µM	–	–	> 100 µM	> 100 µM	> 100 µM	> 100 µM	> 100 µM	> 100 µM	> 100 µM	–	–
COC(=O)c1ccc2c(c1)CC1(C2)Cc2cc3c(cc2C1=O)CCC3 (stereo unspecified)	–	52.7 µM	38.7 µM	> 100 µM	> 100 µM	> 100 µM	> 100 µM	23.1 µM	> 100 µM	57.4 µM	> 100 µM	38.7 µM	> 100 µM	> 100 µM	83.6 µM	> 100 µM	94.2 µM	61.1 µM	50.9 µM
CSc1ccc(C2C(Cl)C(=O)N2NC(=O)c2c(Cl)c(Cl)c(Cl)c(Cl)c2-c2nc3ccccc3[nH]2)cc1 (stereo unspecified)	48.1 µM	–	40.6 µM	37 µM	33.7 µM	> 100 µM	25.1 µM	34.8 µM	–	37 µM	4.87 µM	–	> 100 µM	73.4 µM	35.4 µM	–	15.6 µM	87.9 µM	> 100 µM
Cc1[nH]c(=O)[nH]c(=S)c1C(=O)NC(C)(CO)CO	–	> 100 µM	> 100 µM	> 100 µM	> 100 µM	> 100 µM	> 100 µM	> 100 µM	> 100 µM	> 100 µM	> 100 µM	–	> 100 µM	> 100 µM	> 100 µM	> 100 µM	> 100 µM	> 100 µM	> 100 µM
S=C1Cc2c([nH]c3ccccc23)-c2ccccc2N1	–	> 100 µM	> 100 µM	–	> 100 µM	62.3 µM	> 100 µM	> 100 µM	> 100 µM	> 100 µM	–	> 100 µM	–	> 100 µM	66.7 µM	–	> 100 µM	> 100 µM	> 100 µM
C=CCN1C(=O)/C(=C/c2ccccc2)NC1=S	> 100 µM	> 100 µM	> 100 µM	> 100 µM	> 100 µM	> 100 µM	> 100 µM	> 100 µM	> 100 µM	> 100 µM	> 100 µM	> 100 µM	> 100 µM	> 100 µM	> 100 µM	> 100 µM	> 100 µM	–	> 100 µM
COc1cccc(C2c3cc4c(cc3OC(N3CCCC3)C2C)OCO4)c1 (stereo unspecified)	–	17.1 µM	36.7 µM	24.9 µM	18.3 µM	19.8 µM	12.6 µM	33 µM	–	11.6 µM	22.5 µM	24.3 µM	23.6 µM	61.4 µM	81 µM	–	30.5 µM	–	51.5 µM
COc1cc2c(c(OC)c1OC)-c1ccc(SC)c(=O)cc1C(CC(=O)Oc1ccc([N+](=O)[O-])cc1)C2 (stereo unspecified)	–	> 100 µM	1.09 µM	2.13 µM	1.82 µM	> 100 µM	> 48.3 µM	0.489 µM	–	–	–	> 63 µM	> 48.8 µM	> 31.8 µM	0.68 µM	1.43 µM	20.2 µM	–	–
COc1cc(C2c3cc4c(cc3[C@@H](Nc3ccccc3)C3CO[C@@H](OC)[C@H]23)OCO4)cc(OC)c1O (stereo partly specified)	–	11.3 µM	> 25 µM	> 25 µM	> 25 µM	> 25 µM	–	> 25 µM	–	> 25 µM	> 25 µM	10.2 µM	–	> 25 µM	> 25 µM	> 25 µM	–	–	> 25 µM
N#CCCN(CCC#N)c1ccc(C(=O)NN)cc1	–	> 100 µM	> 100 µM	> 100 µM	> 100 µM	> 100 µM	> 100 µM	> 100 µM	–	–	> 100 µM	> 100 µM	–	> 100 µM	> 100 µM	> 100 µM	> 100 µM	–	–
COC(=O)CCC(=O)NC1c2cccc3cccc(c23)Cn2c(=O)n(C)c(=O)n21 (stereo unspecified)	> 100 µM	> 100 µM	> 100 µM	> 100 µM	> 100 µM	> 100 µM	> 100 µM	> 100 µM	> 100 µM	> 100 µM	> 100 µM	> 100 µM	> 100 µM	> 100 µM	> 100 µM	> 100 µM	> 100 µM	–	> 100 µM
